US8536157B2, “Non-steroidal compounds” (The University of Melbourne, priority 2007, dated 2013)

Key:
[1] = molecular target: proteins in rat lung membranes; experiment: Competitive binding assay with [3H]-CP2117 on rat lung membranes (RLM); conditions: given as Log IC50 (negative values); displacement of 10 nM [3H]-CP2117, overnight at 4° C.; ND- not detected
[2] = system: PGE2 release in J774 macrophages; experiment: PGE2 release from LPS/IFNγ-stimulated J774 macrophages (radioimmunoassay); assay type: cell-based, murine; conditions: Mus musculus, J774, 24 h, 30 min pre-treatment, 24 hour incubation; for activity at 10 µM: l0 μM, read-out: Effects on PGE2 release in J774 macrophages at l0 μM as a % of LPS/IFNγ control, mean; for activity at 1 µM: read-out: Effects on PGE2 release in J774 macrophages at 1 μM as a % of LPS/IFNγ control, mean

Structure (SMILES)	Log IC50 RLM binding [1]	activity at 10 µM [2] [%]	activity at 1 µM [2] [%]
COc1cc2c(cc1O)/C(=N/OCc1ccc3nonc3c1)CC2 [Compound 2-TB-147, (E)-6-Hydroxy-5-methoxy-2,3-dihydro-1H-inden-1-one O-benzo[c][1,2,5]oxadiazol-5-ylmethyl oxime]	−6.43	–	–
COc1ccc(/C(C)=N/OCc2ccc(F)c(F)c2)cc1O [CP30281, (E)-3′-Hydroxy-4′-methoxyacetophenone O-3,4-Difluorobenzyl Oxime]	−6.16	–	–
COc1cc(-c2cccc(NC(=O)OC(C)(C)C)c2)c(/C(C)=N/OCc2ccc([N+](=O)[O-])cc2)cc1O [CP30339, (E)-2′-(3-tert-Butoxycarbonylaminophenyl)-5′-hydroxy-4′-methoxyacetophenone O-4-Nitrobenzyl Oxime]	−6.64	36	–
COc1cc([C@H]2CC[C@@](C)(CO)CC2)c(C(C)=NOCc2ccc3nonc3c2)cc1O [CP30453, 2′-(4-Hydroxymethyl-4-methyl)cyclohexyl-5′-hydroxy-4′-methoxyacetophenone O-(benzofurazan-5-yl)methyl Oxime]	−5.81	–	–
COc1cc(-c2ccc(Cl)cc2)c(/C(C)=N/OCc2ccc([N+](=O)[O-])cc2)cc1O [CP30340, (E)-2′-(4-Chlorophenyl)-5′-hydroxy-4′-methoxyacetophenone O-4-Nitrobenzyl Oxime]	−6.26	51	–
COc1ccc(/C(C)=N/OCc2cccc(OC(F)(F)F)c2)cc1O [CP30282, (E)-3′-Hydroxy-4′-methoxyacetophenone O-3-Trifluoromethoxybenzyl Oxime]	−6.41	–	–
COc1cc2c(cc1O)/C(=N/OCc1ccc([N+](=O)[O-])cc1)CC2 [TB81, (E)-6-Hydroxy-5-methoxy-2,3-dihydroinden-1-one O-4-Nitrobenzyl Oxime]	−6.16	–	–
COc1cc(-c2ccc(N)cc2)c(/C(C)=N/OCc2ccc([N+](=O)[O-])cc2)cc1O [CP30381, (E)-2′-(4-Aminophenyl)-5′-hydroxy-4′-methoxyacetophenone O-4-Nitrobenzyl Oxime]	–	–	62
COc1ccc(/C(C)=N/OCc2ccc(F)cc2)cc1O [CP30266, (E)-3′-Hydroxy-4′-methoxyacetophenone O-4-Fluorobenzyl Oxime]	−6.9	–	–
COc1ccc(-c2cc(OC)c(O)cc2/C(C)=N/OCc2ccc([N+](=O)[O-])cc2)cc1 [CP30338, (E)-5′-Hydroxy-4′-methoxy-2′-(4-methoxyphenyl)acetophenone O-4-Nitrobenzyl Oxime]	−6.88	–	–
COc1cc2c(cc1O)/C(=N/OCc1ccc3nonc3c1)CCC2 [Compound 2-TB-146, (E)-7-Hydroxy-6-methoxy-3,4-dihydronaphthalen-1(2H)-one O-benzo[c][1,2,5]oxadiazol-5-ylmethyl oxime]	−6.91	–	–
COc1cc2c(cc1OC)/C(=N/OCc1ccc([N+](=O)[O-])cc1)CC2 [TB54, (E)-5,6-Dimethoxy-2,3-dihydroinden-1-one O-4-Nitrobenzyl Oxime]	–	78	95
COc1ccc(/C(C)=N/OCc2cccc(F)c2)cc1O [CP30262, (E)-3′-Hydroxy-4′-methoxyacetophenone O-3-Fluorobenzyl Oxime]	−6.88	–	–
COc1ccc(/C(C)=N/OCc2ccccc2F)cc1O [CP30280, (E)-3′-Hydroxy-4′-methoxyacetophenone O-2-Fluorobenzyl Oxime]	−6.5	–	–
COc1cc2c(cc1O)/C(=N/OCc1ccc([N+](=O)[O-])cc1)CCC2 [TB76, (E)-7-Hydroxy-6-methoxy-3,4-dihydronaphthalen-1(2H)-one O-4-Nitrobenzyl Oxime]	−6.48	–	–
